What was measured:
HiBiT-tagged MYB protein = experiment: HiBiT protein abundance assay, MYB (K562 HiBiT knock-in cells); assay type: cell-based, human; details: 24 hours
Method: (§1) Compounds described herein were used to screen for effects on quantitative protein abundance using a HiBit assay system (Promega). Quantitative protein abundance was determined by measuring the protein levels of HiBit-tagged protein targets expressed in cell culture via luminescence using the Nano-Glo HiBiT Lytic Detection System, which uses a split complementation assay format to reconstitute NanoBiT enzyme to generate a luminescent signal. A protein abundance assay was developed such that endogenous protein targets could be modified with the HiBiT peptide tag and their abundance could be assessed after compound treatment. Briefly, K562 cell lines containing a HiBiT-modification were treated with various compounds described herein (e.g., compounds of Formulas (I), (II), or (III)). After treatment for 24 hours, the protein abundance of a specific target was determined by measuring luminescence.
(§2) • Promega Nano-Glo HiBiT Lytic Detection System (cat #N3030) • Corning 384-well TC-treated microplates (cat #3570) • Synthego Engineered Cells Knock-In Clones
(§3) Cells were maintained in IMDM with 10% FBS. Before the assay, cells were diluted with […] growth media (IMDM+1% FBS media) and were seeded in a 384-well plate at a density of 10000 cells/well (for each cell line listed in Table 6). Each compound was prepared as a 10-point 3-fold serial dilution in DMSO with the top dose at a final concentration of 10 μM in the well. Unmodified K562 cells were added at the previously specified density with DMSO to serve as an assay baseline and positive control (PC) and DMSO only with the respective modified cell lines was added to the negative control (NC) columns. Final DMSO concentration was kept at or below 0.25%. Treated cell plates were placed in an incubator at 37° C. with 5% CO2 for 24 hours. After 24 hours, 25 μL of Complete HiBit Lytic reagent was added to each well at room temperature (e.g. one plate requiring 10 mL Lytic Buffer, 100 μL LgBiT Protein, 200 μL Lytic Substrate), shaken for 5 minutes at 600 RPM, then left to sit for 10 minutes for signal to stabilize before reading on a Spark Cyto plate reader (Tecan) with a 500 ms measurement time.
(§4) To determine compound effects on protein abundance of each target in Table 6, the percent response for each respective cell line was calculated at each compound concentration as follows:
(§5) For the normalized response at each concentration, a four-parameter logistical regression was fit to the data and the response was interpolated at the 50% value to determine a concentration for protein abundance at 50% (IC50) the untreated control.

HiBiT-tagged HTT protein = experiment: HiBiT protein abundance assay, HTT (K562 HiBiT knock-in cells); assay type: cell-based, human; details: 24 hours
Method: as §1, §2, §3, §4, §5

Target C = experiment: HiBiT protein abundance assay, Target C (K562 HiBiT knock-in cells); assay type: cell-based, human; details: 24 hours
Method: as §2, §3, §4, §5

K562 cells = experiment: Cell Titer Glo 2.0 cell viability assay in K562 cells; details: 72 hours
HTT mRNA [1] = experiment: Splicing RT-qPCR assay, HTT canonical (CJ) and alternative (AJ) junction mRNA; assay type: cell-based; details: Homo sapiens, A673 or K562 cells, 24 hours; for IC50: decrease in canonical junction mRNA; for AC50: increase in alternative junction mRNA
Method: (§6) Compounds described herein were used to modulate RNA transcript abundance in cells. The expression of a target mRNA was measured by detecting the formation of an exon-exon junction in the canonical transcript (CJ). A compound mediated exon-inclusion event was detected by observing an increase in formation of a new junction with an alternative exon (AJ). Real-time qPCR assays were used to detect these splicing switches and interrogate the potency of various compounds towards different target genes. A high-throughput real time quantitative PCR (RT-qPCR) assay was developed to measure these two isoforms of the mRNA (CJ and AJ) for exemplary genes, such as HTT, SMN2, and MYB, together with a control housekeeping gene, GAPDH or GUSB or PPIA, used for normalization. Briefly, the A673 or K562 cell line was treated with various compounds described herein (e.g., compounds of Formula (I), (I), or (III)). After treatment, the levels of the HTT, MYB, or SMN2 mRNA targets were determined from each sample of cell lysate by cDNA synthesis followed by qPCR.
(§7) • Cells-to-CT 1-step kit: ThermoFisher A25602, Cells-to-CT lysis reagent: ThermoFisher 4391851C, TaqMan™ Fast Virus 1-Step Master Mix: ThermoFisher 4444436 • GAPDH: VIC-PL, ThermoFisher 4326317E (Assay: Hs99999905_ml)—used for K562/suspension cell lines • GUSB: VIC-PL, ThermoFisher 4326320E (Assay: Hs99999908_ml)—used for K562/suspension cell lines • PPIA: VIC-PL, ThermoFisher 4326316E (Assay: Hs99999904_ml)—used for A673/adherent cell lines
(§8) The A673 cell line was cultured in DMEM with 10% FBS. Cells were diluted with full growth media and plated in a 96-well plate (15,000 cells in 100 ul media per well). The plate was incubated at 37° C. with 5% CO2 for 24 hours to allow cells to adhere. An 11-point 3-fold serial dilution of the compounds was made in DMSO then diluted in media in an intermediate plate. Compounds were transferred from the intermediate plate to the cell plate with the top dose at a final concentration of 10 uM in the well. Final DMSO concentration was kept at or below 0.25%. The cell plate was returned to the incubator at 37° C. with 5% CO2 for an additional 24 hours.
(§9) The K562 cell line was cultured in IMDM with 10% FBS. For K562, cells were diluted with full growth media and plated in either a 96-well plate (50,000 cells in 50 uL media per well) or a 384-well plate (8,000-40,000 cells in 45 uL media per well). An 11-point 3-fold serial dilution of the compounds were made in DMSO then diluted in media in an intermediate plate. Compound was transferred from the intermediate plate to the cell plate with the top dose at a final concentration of 10 uM in the well. Final DMSO concentration was kept at or below 0.25%. Final volume was 100 uL for 96-well plate and 50 uL for 384-well plate. The cell plate was then placed in an incubator at 37° C. with 5% CO2 for 24 hours.
(§10) The cells were then gently washed with 50 uL-100 uL cold PBS before proceeding to addition of lysis buffer. 30 uL-50 uL of room temperature lysis buffer with DNAse I (and optionally RNAsin) was added to each well. Cells were shaken/mixed thoroughly at room temperature for 5-10 minutes for lysis to take place and then 3 uL-5 uL of room temperature stop solution was added and wells were shaken/mixed again. After 2-5 minutes, the cell lysate plate was transferred to ice for RT-qPCR reaction setup. The lysates could also be frozen at −80° C. for later use.
(§11) In some cases, a direct lysis buffer was used. An appropriate volume of 3×lysis buffer (10 mM Tris, 150 mM NaCl, 1.5%-2.5% Igepal and 0.1-1 U/uL RNAsin, pH 7.4) was directly added to either K562 or A673 cells in media and mixed by pipetting 3 times. The plates were then incubated at room temperature with shaking/rocking for 20-50 minutes to allow for lysis to take place. After this time, the cell lysate plate was transferred to ice to set up for the RT-qPCR reactions. The lysates could also be frozen at −80° C. for later use. […]

MYB mRNA [2] = experiment: Splicing RT-qPCR assay, MYB canonical (CJ) and alternative (AJ) junction mRNA; assay type: cell-based; details: Homo sapiens, A673 or K562 cells, 24 hours; for IC50: decrease in canonical junction mRNA; for AC50: increase in alternative junction mRNA
Method: as §6, §7, §8, §9, §10, §11

HTT mRNA [3] = experiment: Gene panel canonical junction qPCR assay, HTT CJ mRNA decrease; assay type: cell-based, human; details: Homo sapiens, canonical junction qPCR, read-out: HTT IC50 (decrease in CJ mRNA levels)
Procedure, shortened: (§12)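 A673 or K562 cells were treated with compound, and lysates underwent cDNA synthesis and qPCR with a CY5 5′-nuclease probe or primer spanning the canonical exon junction. ΔCt versus GAPDH, GUSB or PPIA was normalized to DMSO (2^(−ΔΔCt)), converted to percentage response and fitted four-parameter logistic for IC50.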

MYB mRNA [4] = experiment: Gene panel canonical junction qPCR assay, MYB CJ mRNA decrease; assay type: cell-based, human; details: Homo sapiens, canonical junction qPCR, read-out: MYB IC50 (decrease in CJ mRNA levels)
Procedure, shortened: as §12

SMN2 mRNA = experiment: Gene panel canonical junction qPCR assay, SMN2 CJ mRNA decrease; assay type: cell-based, human; details: Homo sapiens, canonical junction qPCR, read-out: SMN2 IC50 (decrease in CJ mRNA levels)
Procedure, shortened: as §12

Target C mRNA = experiment: Gene panel canonical junction qPCR assay, Target C CJ mRNA decrease; assay type: cell-based; details: Homo sapiens, canonical junction qPCR, read-out: Target C IC50 (decrease in CJ mRNA levels)
Procedure, shortened: as §12

IC50 (HiBiT-tagged MYB protein) [nM] | IC50 (HiBiT-tagged HTT protein) [nM] | IC50 (Target C) [nM] | IC50 (HTT mRNA [1]) [nM] | IC50 (MYB mRNA [2]) [nM] | IC50 (HTT mRNA [3]) [nM] | IC50 (MYB mRNA [4]) [nM] | IC50 (SMN2 mRNA) [nM] | IC50 (Target C mRNA) [nM] | Structure (SMILES) | Viability (K562 cells) | AC50 (HTT mRNA [1]) [nM] | AC50 (MYB mRNA [2]) [nM]
< 100 | 100 to 1000 | 1000 to 10000 |  |  |  |  |  |  | Cc1cn2cc(NC(=O)c3ccc(N4CCNCC4)c4cncnc34)cc(F)c2n1 [Compound 112] | B (B represents 100-1000 nM) |  | 
 |  |  | 1000 to 10000 | < 100 | 1000 to 10000 | < 100 | < 100 | > 10000 | COc1nc(NC(=O)c2ccc(N3C[C@H](C)N[C@@H](C)C3)c3cccnc23)cn2cc(C)nc12 [Compound 384] | B (B represents 100-1000 nM) | 1000 to 10000 | < 100
 |  |  | 100 to 1000 | < 100 | 100 to 1000 | < 100 | < 100 | 100 to 1000 | COc1ncc2c(N3C[C@H](C)N[C@@H](C)C3)ccc(C(=O)Nc3cc(F)c4nc(C)cn4c3)c2n1 [Compound 386] |  | 100 to 1000 | < 100
 |  |  | 1000 to 10000 | 100 to 1000 | 1000 to 10000 | 100 to 1000 | < 100 | 1000 to 10000 | COc1nc(NC(=O)c2ccc(N3C[C@@H](C)N[C@@H](C)C3)c3cccnc23)cn2cc(C)nc12 [Compound 383] | B (B represents 100-1000 nM) | 1000 to 10000 | 100 to 1000
 |  |  | > 10000 | 100 to 1000 | > 10000 | 100 to 1000 | 100 to 1000 | > 10000 | Cc1cn2cc(NC(=O)c3ccc(N4CCNCC4)c4ccnnc34)nc2c(C)n1 [Compound 121] |  | > 10000 | 1000 to 10000
 |  |  | 1000 to 10000 | < 100 | 1000 to 10000 | < 100 | < 100 | 1000 to 10000 | COc1ncc2c(N3C[C@H](C)N[C@@H](C)C3)ccc(C(=O)Nc3cn4cc(C)nc4c(OC)n3)c2n1 [Compound 387] | B (B represents 100-1000 nM) | 1000 to 10000 | < 100

Further lines, the compound ahead of its results:

Structure (SMILES) | IC50 (HiBiT-tagged MYB protein) [nM] | IC50 (HiBiT-tagged HTT protein) [nM] | IC50 (Target C) [nM] | IC50 (HTT mRNA [1]) [nM] | IC50 (MYB mRNA [2]) [nM] | IC50 (HTT mRNA [3]) [nM] | IC50 (MYB mRNA [4]) [nM] | IC50 (SMN2 mRNA) [nM] | IC50 (Target C mRNA) [nM] | Viability (K562 cells) | AC50 (HTT mRNA [1]) [nM] | AC50 (MYB mRNA [2]) [nM]
COc1ccc2c(N3C[C@H](C)N[C@@H](C)C3)ccc(C(=O)Nc3cc(F)c4nc(C)cn4c3)c2n1 [Compound 385] |  |  |  | 1000 to 10000 | < 100 | 1000 to 10000 | < 100 | < 100 | > 10000 | B (B represents 100-1000 nM) | 1000 to 10000 | < 100
Cc1cn2cc(NC(=O)c3ccc([C@@H]4C[C@@H](C)N[C@@H](C)C4)c4nccnc34)cc(F)c2n1 [Compound 380] |  |  |  | 100 to 1000 | < 100 | 100 to 1000 | < 100 | < 100 | 100 to 1000 | B (B represents 100-1000 nM) | 100 to 1000 | < 100
Cc1cn2cc(NC(=O)c3ccc([C@H]4C[C@@H](C)N[C@@H](C)C4)c4nccnc34)cc(F)c2n1 [Compound 379] |  |  |  | 1000 to 10000 | 100 to 1000 | 1000 to 10000 | 100 to 1000 | < 100 | > 10000 | B (B represents 100-1000 nM) | 1000 to 10000 | 100 to 1000
Cc1cn2cc(NC(=O)c3ccc(N4C[C@H](C)N[C@@H](C)C4)c4cccnc34)cc(F)c2n1 [Compound 382] |  |  |  | 1000 to 10000 | 100 to 1000 | 1000 to 10000 | 100 to 1000 | < 100 | 1000 to 10000 | B (B represents 100-1000 nM) | 1000 to 10000 | < 100
COc1nc(NC(=O)c2ccc(N3C[C@H](C)N[C@@H](C)C3)c3nccnc23)cn2cc(C)nc12 [Compound 381] |  |  |  | > 10000 | 100 to 1000 | > 10000 | 100 to 1000 | < 100 | > 10000 | B (B represents 100-1000 nM) | > 10000 | 100 to 1000
COCCOc1ncc2c(N3CCNCC3)ccc(C(=O)Nc3cc(F)c4nc(C)cn4c3)c2n1 [Compound 180, N-{8-fluoro-2-methylimidazo[1,2-a]pyridin-6-yl}-2-(2-methoxyethoxy)-5-(piperazin-1-yl)quinazoline-8-carboxamide; trifluoroacetic acid] | > 10000 | > 10000 | > 10000 |  |  |  |  |  |  |  |  | 

— US20240409536A1, “COMPOUNDS AND METHODS FOR MODULATING SPLICING” (REMIX THERAPEUTICS INC., priority 2021, published 2024)
